Data from patent US20210188813A1, “EZH2 INHIBITOR AND PHARMACEUTICALLY ACCEPTABLE SALTS AND POLYMORPHIC SUBSTANCES THEREOF, AND APPLICATION OF EZH2 INHIBITOR” (SHANGHAI HAIYAN PHARMACEUTICAL TECHNOLOGY CO., LTD., priority 2018, published 2021).
Converted amounts (≈) assume the structure as drawn. Like-named read-outs stand apart in the source and are kept apart here.

Key:
PRC2 (EZH2-Y641F) = target: T1, PRC2 (EZH2-Y641F) (Homo sapiens, UniProt Q15910, Y641F); test: In vitro methyltransferase assay; type: biochemical
T1 construct: purchased Active motif
Procedure: Recombinant PRC2 (EZH2-Y641F) was purchased from Active motif, S-adenosyl-methionin chloride (SAM) and Poly-L-lysine (PLL) were purchased from Sigma-Aldrich, H3(1-50)K27me1 peptide was purchased from Cisbio. LANCEUltra (Perkinelmer) system was used for detection. For the enzyme activity test, tested compounds are 1:3 diluted for 8-points, and added into each well, then 100 ng enzyme is added. And then the buffer [20 mM Tris pH8.5, 2 mM MgCl2, 0.01% Tween-20, 1 mM TCEP] containing […]/250 nM H3 (1-50)K27me1 premixtures are added. After 3 hours enzyme reaction at RT, the premixed detection buffer (PLL, Europium antibody and Ulight) is added, and react for 1 h at RT, then read fluorescence on Tecan infinite pro. IC50s are counted by XLfit using a four-parameter model.

Pfeiffer cells = test: Cell proliferation assay, Pfeiffer; type: cell-based; settings: for IC50: Homo sapiens, Pfeiffer, 144 h, 6 days' growth, cell counting kit-8
Procedure: (§1) Cell lines Pfeiffer (CRL-2632), suDHL-6 (CRL-2959) and suDHL-10 (CRL-2963) were obtained from ATCC. All cell lines were cultured in RPMI-1640 medium (Gibco) plus 10% FBS (Gibco). Cells are harvested by centrifuge and densities are determined using a CounterStar cell counter. Appropriate number of cells are plated in a96-well culture plate and pre-incubate overnight. Tested compounds are 1:3 diluted for 8-points and added into each well. After 6 days' growth, cell counting kit-8 (Dojindo) is used to detect cell viability and read on Tecan infinite pro. IC50s are counted by XLfit using a four-parameter model.

[1] = Dynamic solubility experiment; type: physicochemical; settings: for solubility at 24 h: thermodynamic from solid, room temperature
Excerpt: The free base samples and the two crystal forms were plotted separately in the experiment.

SU-DHL-6 = test: Cell proliferation assay, SU-DHL-6; type: cell-based
Procedure: as §1

SU-DHL-10 = test: Cell proliferation assay, SU-DHL-10; type: cell-based
Procedure: as §1

T1 sequence (Q15910 whole entry Y641F): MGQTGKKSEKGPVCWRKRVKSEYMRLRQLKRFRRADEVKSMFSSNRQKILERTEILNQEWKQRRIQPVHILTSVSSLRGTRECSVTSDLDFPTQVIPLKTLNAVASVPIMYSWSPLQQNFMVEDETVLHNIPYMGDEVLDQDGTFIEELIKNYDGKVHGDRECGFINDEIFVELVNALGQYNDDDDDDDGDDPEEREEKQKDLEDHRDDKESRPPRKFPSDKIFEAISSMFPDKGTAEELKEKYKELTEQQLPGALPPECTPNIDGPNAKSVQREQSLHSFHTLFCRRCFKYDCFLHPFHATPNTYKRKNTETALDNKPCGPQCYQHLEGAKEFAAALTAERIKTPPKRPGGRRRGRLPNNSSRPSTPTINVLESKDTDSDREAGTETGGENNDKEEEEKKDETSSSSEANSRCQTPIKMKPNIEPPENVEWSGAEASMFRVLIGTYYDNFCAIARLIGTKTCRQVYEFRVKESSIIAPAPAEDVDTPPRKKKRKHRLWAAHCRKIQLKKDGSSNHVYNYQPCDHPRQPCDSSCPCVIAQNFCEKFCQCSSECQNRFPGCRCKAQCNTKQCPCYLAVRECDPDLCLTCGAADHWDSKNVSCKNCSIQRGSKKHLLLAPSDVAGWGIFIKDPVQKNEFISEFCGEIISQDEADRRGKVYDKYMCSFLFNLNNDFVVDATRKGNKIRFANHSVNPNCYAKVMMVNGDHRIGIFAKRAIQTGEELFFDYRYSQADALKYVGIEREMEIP
T1 sequence (O75530 whole entry partner): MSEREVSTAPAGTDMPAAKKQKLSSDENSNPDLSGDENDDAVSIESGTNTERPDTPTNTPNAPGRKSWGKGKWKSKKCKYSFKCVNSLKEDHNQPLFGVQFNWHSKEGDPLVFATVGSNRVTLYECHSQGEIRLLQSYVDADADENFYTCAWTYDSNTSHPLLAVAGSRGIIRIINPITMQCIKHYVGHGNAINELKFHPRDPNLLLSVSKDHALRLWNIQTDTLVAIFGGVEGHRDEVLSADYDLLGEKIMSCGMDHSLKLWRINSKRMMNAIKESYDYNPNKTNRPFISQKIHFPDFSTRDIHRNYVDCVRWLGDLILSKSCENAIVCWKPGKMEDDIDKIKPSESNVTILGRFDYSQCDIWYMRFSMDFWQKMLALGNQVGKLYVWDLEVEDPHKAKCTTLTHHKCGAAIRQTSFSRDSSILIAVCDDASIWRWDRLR
T1 sequence (Q15022 whole entry partner): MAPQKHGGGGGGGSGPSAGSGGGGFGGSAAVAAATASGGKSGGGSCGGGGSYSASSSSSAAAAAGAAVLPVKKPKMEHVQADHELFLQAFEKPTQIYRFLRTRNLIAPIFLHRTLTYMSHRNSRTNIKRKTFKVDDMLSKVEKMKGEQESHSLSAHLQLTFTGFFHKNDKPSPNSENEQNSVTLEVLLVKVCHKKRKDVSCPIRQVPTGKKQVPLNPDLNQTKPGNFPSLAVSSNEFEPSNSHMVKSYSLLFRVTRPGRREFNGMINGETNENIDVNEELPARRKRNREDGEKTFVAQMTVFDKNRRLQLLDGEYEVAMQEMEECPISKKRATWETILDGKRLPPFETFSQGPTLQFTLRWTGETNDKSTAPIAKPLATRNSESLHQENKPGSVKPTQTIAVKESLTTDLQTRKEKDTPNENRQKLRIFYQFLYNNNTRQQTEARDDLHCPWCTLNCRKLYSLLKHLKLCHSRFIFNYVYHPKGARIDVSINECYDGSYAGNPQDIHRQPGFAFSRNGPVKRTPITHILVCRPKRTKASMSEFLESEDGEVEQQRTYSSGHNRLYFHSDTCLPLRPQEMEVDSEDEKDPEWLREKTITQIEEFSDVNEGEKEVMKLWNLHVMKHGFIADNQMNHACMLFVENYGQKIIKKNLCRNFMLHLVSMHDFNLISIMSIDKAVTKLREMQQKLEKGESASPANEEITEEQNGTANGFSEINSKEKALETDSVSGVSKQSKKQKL
T1 sequence (Q09028 whole entry partner): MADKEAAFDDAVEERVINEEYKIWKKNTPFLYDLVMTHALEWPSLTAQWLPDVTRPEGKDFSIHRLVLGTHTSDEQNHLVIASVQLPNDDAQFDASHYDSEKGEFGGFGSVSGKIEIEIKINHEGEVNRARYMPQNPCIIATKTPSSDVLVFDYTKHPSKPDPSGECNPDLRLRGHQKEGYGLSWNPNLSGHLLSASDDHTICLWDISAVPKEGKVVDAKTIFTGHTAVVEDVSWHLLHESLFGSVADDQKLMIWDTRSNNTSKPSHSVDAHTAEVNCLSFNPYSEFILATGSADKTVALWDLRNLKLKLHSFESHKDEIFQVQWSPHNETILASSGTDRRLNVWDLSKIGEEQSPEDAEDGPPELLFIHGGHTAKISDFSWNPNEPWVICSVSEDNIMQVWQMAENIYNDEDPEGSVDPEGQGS
T1 sequence (Q6ZN18 whole entry partner): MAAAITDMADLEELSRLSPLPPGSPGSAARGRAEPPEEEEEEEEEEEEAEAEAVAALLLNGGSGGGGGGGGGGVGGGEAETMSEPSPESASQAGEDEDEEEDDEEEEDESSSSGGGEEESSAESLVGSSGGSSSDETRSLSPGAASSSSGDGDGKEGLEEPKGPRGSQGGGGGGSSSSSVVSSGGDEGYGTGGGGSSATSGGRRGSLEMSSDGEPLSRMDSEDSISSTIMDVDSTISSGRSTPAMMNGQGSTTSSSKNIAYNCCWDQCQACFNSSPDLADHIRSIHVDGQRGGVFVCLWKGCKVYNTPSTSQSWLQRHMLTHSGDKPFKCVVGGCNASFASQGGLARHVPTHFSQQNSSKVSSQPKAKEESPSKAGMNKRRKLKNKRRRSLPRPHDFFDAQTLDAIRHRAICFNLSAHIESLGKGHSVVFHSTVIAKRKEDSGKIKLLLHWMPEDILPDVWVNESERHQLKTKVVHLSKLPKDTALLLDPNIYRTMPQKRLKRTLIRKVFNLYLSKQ

## CCN(c1cc(C(=O)NCc2c(C)cc(C)[nH]c2=O)c(C)c2c1cnn2C)C1CCC(N(C)C)CC1 (stereo not shown) [D2]
PRC2 (EZH2-Y641F)
  IC50: 4820 nM
Pfeiffer cells
  IC50: > 3000 nM

## CCN(c1cc(C(=O)NCc2c(C)cc(C)[nH]c2=O)c(C)c2c1cnn2C)C1CCC(N2CC(OC)C2)CC1 (stereo not shown) [D3]
PRC2 (EZH2-Y641F)
  IC50: > 10000 nM
Pfeiffer cells
  IC50: > 3000 nM

## CCN(c1cc(C(=O)NCc2c(C)cc(C)[nH]c2=O)c(C)c2c1cnn2C)C1CCN(CC(F)(F)F)CC1 [D4]
PRC2 (EZH2-Y641F)
  IC50: > 10000 nM
Pfeiffer cells
  IC50: > 3000 nM

## CCc1c(C(=O)NCc2c(C)cc(C)[nH]c2=O)cc2c(cnn2C)c1N(CC)[C@H]1CC[C@H](N2CC(OC)C2)CC1 [Free base, N-((4,6-dimethyl-2-oxo-1,2-dihydropyridin-3-yl)methyl)-5-ethyl-4-(ethyl((1S,4S)-4-(3-methoxyazetidin-1-yl)cyclohexyl)amino)-1-methyl-1H-indazole-6-carboxamide]
PRC2 (EZH2-Y641F)
  IC50: 12 nM
  inhibitory activity against EZH2 Y641F enzyme: high inhibitory activity
PRC2 (EZH2-Y641F); listed as compound of formula X
  inhibitory activity against EZH2 Y641F enzyme: high inhibitory activities
[1]; 0.1M HCl
  Final pH: 4.56
  Phenomenon: clear
[1]; H2O
  Final pH: 8.32
  Phenomenon: turbid
[1]; aqueous buffer, pH 4.5 buffer
  solubility at 24 h: 3590 µg/mL (≈ 6540 µM)
[1]; aqueous buffer, pH 6.8 buffer
  solubility at 24 h: 840 µg/mL (≈ 1530 µM)
[1]; pH 4.5 buffer
  Final pH: 5.84
  Phenomenon: turbid
[1]; pH 6.8 buffer
  Final pH: 6.74
  Phenomenon: turbid
[1]; simulated gastric fluid, 0.1M HCl
  solubility at 24 h: > 50000 µg/mL
[1]; water, H2O
  solubility at 24 h: 60 µg/mL (≈ 109 µM)
Pfeiffer cells
  IC50: 7 nM
Pfeiffer cells; Table 10
  inhibitory activity against cells: high inhibitory activity
SU-DHL-6
  inhibitory activity against SU-DHL-6 cells: high inhibitory activities
SU-DHL-10
  inhibitory activity against SU-DHL-10 cells: high inhibitory activities
